{"source": "patent US3961041A", "about": "“Effervescent enteric coated L-dopa formulation and method of using the same” (priority 1974, dated 1976)", "key": {"[1]": {"conditions": "cited from earlier work"}, "[2]": {"assay": "Absorption of L-DOPA from the gastrointestinal tract (inventors' experimentation)", "format": "in vivo", "text": "As for (1), it has been confirmed that the decomposition of L-DOPA in the stomach is remarkable as shown in numerous reports in the past.\nAs a result, optimum absorption of the drug is totally incomplete."}, "decarboxylase enzymes": {"tested_on": "decarboxylase enzymes", "conditions": "cited from earlier work"}, "Parkinson's Disease": {"tested_on": "Parkinson's Disease", "conditions": "in vivo, po; cited from earlier work"}, "[3]": {"conditions": "dopamine as metabolite; cited from earlier work"}}}
{"smiles": "N[C@@H](Cc1ccc(O)c(O)c1)C(=O)O", "note": "[L-DOPA, 3,4-dihydroxy-L-phenylalanine]", "values": [{"measurement": "decomposition in the stomach", "setting": "[1]; in vivo", "result": "remarkable"}, {"measurement": "stability in the gastrointestinal tract, especially in the stomach", "setting": "[1]; in vivo", "result": "unstable"}, {"measurement": "absorption from the gastrointestinal tract (prior art reason)", "setting": "[1]; oral", "result": "poorly absorbed"}, {"measurement": "absorption from the gastrointestinal tract", "setting": "[2]; in vivo", "result": "almost completely absorbed"}, {"measurement": "optimum absorption site", "setting": "[2]; in vivo", "result": "small intestine, especially in the upper part thereof"}, {"measurement": "absorption, oral as compared to intravenous", "setting": "[2]; oral vs intravenous", "result": "not appreciably different"}, {"measurement": "decarboxylation via decarboxylase enzymes in the intestine", "setting": "decarboxylase enzymes", "result": "apt to undergo decarboxylation"}, {"measurement": "side effects when massive dosing is administered", "setting": "Parkinson's Disease", "result": "marked side effects"}]}
{"smiles": "NCCc1ccc(O)c(O)c1", "note": "[dopamine]", "values": [{"measurement": "therapeutic effect in the treatment of Parkinson's Disease", "setting": "[3]", "result": "does not have any therapeutic effect"}]}
